The source of these data is PubChem BioAssay (NCI).

Where “and” joins values, the source holds several entries; their conditions need not be identical. Equal entries are not always repeated.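 Five concentrations, 48 hours, 96-well plates. GI50 is the concentration that inhibits growth by half. TGI: total growth inhibition.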

Test systems include SNB-19 CNS; T-47D breast; SF-268 CNS; HCC-2998 colon; OVCAR-3 ovarian; MDA-MB-435; M14 melanoma; SK-OV-3 ovarian; SR leukemia; MCF7 breast.
Holding throughout (experiment): NCI anticancer screen, dose series, 48 h

Take `O=c1[nH]c2ccccc2n1C1CCNCC1`: the GI50 with SNB-19 CNS, in the assay on T-47D breast, in the assay with SF-268 CNS, with HCC-2998 colon, in the assay with OVCAR-3 ovarian and with MDA-MB-435 was above 100 µM in each case. Besides, the GI50 with M14 melanoma, in the assay with SK-OV-3 ovarian, with SR leukemia and with MCF7 breast was above 100 µM throughout. Moreover, the TGI in the assay on SNB-19 CNS, in the assay with T-47D breast, in the assay on SF-268 CNS, with HCC-2998 colon, with OVCAR-3 ovarian and in the assay on MDA-MB-435 was above 100 µM each time. Further, the TGI in the assay on M14 melanoma, in the assay with SK-OV-3 ovarian, with SR leukemia and in the assay with MCF7 breast was above 100 µM each time.
For `O=C(O)c1ccc(N(/C=C/C(=O)C(F)(F)F)Cc2ccc(Cl)cc2)cc1`, the GI50 in the assay with SNB-19 CNS was 47.9 µM; in the assay with T-47D breast, 28.5 µM; in the assay on SF-268 CNS, above 100 µM; in the assay with HCC-2998 colon, 19.8 µM; in the assay with OVCAR-3 ovarian it was 25.8 µM; in the assay with MDA-MB-435 it was 35.5 µM. Further, the GI50 in the assay with M14 melanoma was 22.7 µM; in the assay on SK-OV-3 ovarian, 35.5 µM; in the assay with SR leukemia it was 27.3 µM; in the assay on MCF7 breast, above 100 µM. For the same compound, the TGI in the assay on SNB-19 CNS is above 100 µM; in the assay with T-47D breast, 93.9 µM; in the assay with SF-268 CNS it was above 100 µM; in the assay on HCC-2998 colon, 44.3 µM; in the assay with OVCAR-3 ovarian, 72.5 µM; with MDA-MB-435, above 100 µM. In addition, the TGI with M14 melanoma is 62.7 µM; with SK-OV-3 ovarian, above 100 µM; in the assay with SR leukemia, 71.5 µM; in the assay with MCF7 breast, above 100 µM.
On to `N#CCCNc1nonc1-c1nc2ccccc2n1CC(=O)c1ccc(N)cc1`, for which the TGI was above 100 µM in the assay on SNB-19 CNS; above 100 µM with T-47D breast; above 82 µM in the assay on SF-268 CNS; above 100 µM in the assay on HCC-2998 colon; 0.0549 µM in the assay on OVCAR-3 ovarian; below 0.0166 µM in the assay with MDA-MB-435. The TGI with M14 melanoma was above 100 µM; in the assay on SK-OV-3 ovarian, 0.0665 µM; in the assay with SR leukemia it was above 100 µM; in the assay on MCF7 breast, above 100 µM. The GI50 was 29 µM with T-47D breast; 0.023 µM with SF-268 CNS; 0.0338 µM with HCC-2998 colon; 0.0207 µM in the assay on OVCAR-3 ovarian; below 0.01 µM in the assay on MDA-MB-435; 0.0249 µM in the assay on M14 melanoma. Besides, the GI50 in the assay on SK-OV-3 ovarian was 0.0189 µM; in the assay with SR leukemia it was below 0.0135 µM; with MCF7 breast, below 0.019 µM.
For the compound `O=C(N/N=C/c1ccc(Cl)cc1)c1ccc(NC(=O)c2ccccn2)cc1`, the GI50 is 30 µM in the assay on SNB-19 CNS; 21.2 µM with T-47D breast; 16.1 µM in the assay with SF-268 CNS; above 100 µM in the assay with HCC-2998 colon; 14 µM in the assay on OVCAR-3 ovarian; 23.8 µM in the assay on MDA-MB-435. Further, the GI50 with M14 melanoma was 56.8 µM; in the assay with SK-OV-3 ovarian, 31 µM; in the assay with SR leukemia, 70.8 µM; in the assay on MCF7 breast it was 47.3 µM. The TGI in the assay with SNB-19 CNS is above 100 µM; in the assay on T-47D breast it was above 100 µM; with SF-268 CNS, 95 µM; in the assay with HCC-2998 colon, above 100 µM; in the assay with OVCAR-3 ovarian, 33.6 µM; in the assay on MDA-MB-435 it was above 100 µM. Besides, the TGI with M14 melanoma, in the assay on SK-OV-3 ovarian, with SR leukemia and in the assay with MCF7 breast was above 100 µM in each case.
Take `O=S(=O)(NCCCNc1cc(-c2cn(-c3ccccc3)nc2-c2cccc(O)c2)ccn1)c1ccc(C(F)(F)F)cc1`: the GI50 with SNB-19 CNS is 2.04 µM; with T-47D breast it was 2.49 µM; with SF-268 CNS it was 1.85 µM; with HCC-2998 colon it was 1.92 µM; in the assay with OVCAR-3 ovarian, 1.92 µM; in the assay with MDA-MB-435, 1.74 µM. Besides, the GI50 in the assay on M14 melanoma is 1.66 µM; in the assay with SK-OV-3 ovarian, 2.39 µM; in the assay on SR leukemia, 1.78 µM; in the assay on MCF7 breast, 2.11 µM. For the same compound, the TGI turned out to be 5.55 µM with SNB-19 CNS; 7.08 µM in the assay with T-47D breast; 4.95 µM with SF-268 CNS; 3.53 µM with HCC-2998 colon; 4.03 µM in the assay with OVCAR-3 ovarian; 3.46 µM with MDA-MB-435. The TGI in the assay on M14 melanoma worked out at 3.24 µM; in the assay on SK-OV-3 ovarian, 5.95 µM; in the assay on SR leukemia, 5.83 µM; with MCF7 breast it was 6.58 µM.
In the case of `COc1cc2c(c3oc(-c4ccc(O)cc4)c(O)c(=O)c13)CCC(C)(C)O2`, the GI50 in the assay on SNB-19 CNS was 0.16 µM; with T-47D breast it was 0.767 µM; in the assay on SF-268 CNS, 0.122 µM; in the assay on HCC-2998 colon, 0.254 µM; with OVCAR-3 ovarian, 0.431 µM; with MDA-MB-435, 0.0427 µM. For the same compound, the GI50 with M14 melanoma is 0.212 µM; with SK-OV-3 ovarian it was 0.401 µM; in the assay on SR leukemia, 0.0773 µM; in the assay with MCF7 breast it was 0.381 µM. Further, the TGI is above 23.4 µM in the assay with SNB-19 CNS; 0.672 µM with HCC-2998 colon; 27.4 µM in the assay with OVCAR-3 ovarian; 0.204 µM in the assay on MDA-MB-435; 0.523 µM with M14 melanoma; 5.4 µM in the assay on SK-OV-3 ovarian. In the assay on MCF7 breast, this compound registered a TGI above 100 µM.
With `COc1ccc(C2=NN(C(N)=S)C(c3ccc4c(c3)OCO4)C2)cc1` (stereo unspecified), the GI50 in the assay on SNB-19 CNS was 3.13 µM; in the assay on T-47D breast, 3.22 µM; with SF-268 CNS, 2.79 µM; in the assay with HCC-2998 colon it was 2.3 µM; in the assay on OVCAR-3 ovarian, 2.07 µM; with MDA-MB-435, 2.39 µM. Further, the GI50 was 3.77 µM with M14 melanoma, 2.35 µM in the assay with SK-OV-3 ovarian, 3.08 µM with SR leukemia and 3.23 µM with MCF7 breast. The TGI was found to be 22.8 µM in the assay on SNB-19 CNS; 41 µM with T-47D breast; 8.02 µM with SF-268 CNS; 5.85 µM in the assay with HCC-2998 colon; 4.72 µM in the assay on OVCAR-3 ovarian; 7.26 µM in the assay with MDA-MB-435. For the same compound, the TGI with M14 melanoma is 35.4 µM; with SK-OV-3 ovarian, 6.12 µM; in the assay with SR leukemia, 11.8 µM; in the assay on MCF7 breast, above 100 µM.
Take `Cc1ccc(NC(=O)c2ccc(CN3CCN(C)CC3)cc2)cc1Nc1nc(-c2cccnc2)cs1`: the GI50 in the assay on SNB-19 CNS is 14.4 µM and 6.37 µM; in the assay with T-47D breast, 4.89 µM and 1.87 µM; in the assay with SF-268 CNS it was 12.6 µM and > 10 µM; with HCC-2998 colon, 11.8 µM and > 10 µM; in the assay on OVCAR-3 ovarian, 11.7 µM and 3.5 µM; with MDA-MB-435, 8.24 µM and 5.64 µM. The GI50 is 7.66 µM and 3.44 µM in the assay with M14 melanoma; 19.1 µM and > 10 µM in the assay with SK-OV-3 ovarian; 2.72 µM and 1.91 µM in the assay on SR leukemia; 5.97 µM and 2.84 µM in the assay on MCF7 breast. Also, the TGI in the assay on SNB-19 CNS is 29.7 µM and > 10 µM; in the assay with T-47D breast, 22 µM and 7.06 µM; with SF-268 CNS, 26.7 µM and > 10 µM; with HCC-2998 colon it was 26 µM and > 10 µM; in the assay with OVCAR-3 ovarian, 24.3 µM and > 10 µM; with MDA-MB-435 it was 21.6 µM and > 10 µM. The TGI with M14 melanoma was 21.2 µM and > 10 µM; in the assay on SK-OV-3 ovarian, 40 µM and > 10 µM; with SR leukemia it was 18.6 µM and 4.67 µM; with MCF7 breast it was 21.7 µM and > 10 µM.
